This is an account of results in ChEMBL document CHEMBL1122975, “Potential inhibitors of S-adenosylmethionine-dependent methyltransferases. 9. 2',3'-Dialdehyde derivatives of carbocyclic purine nucleosides as inhibitors of S-adenosylhomocysteine hydrolase” (J Med Chem, 1985).

One experiment deals with L929. Description: Percentage inhibition of plaque formation, after 72 hr of incubation in virus plaque assay, prepared from monolayer cultures of mouse L 929 cells. The experiment is classed as functional. Further details: concentration or dose not given beside the values.
The test system of experiment [1] is Adenosylhomocysteinase (Bos taurus). The experiment is described as follows: Compound is evaluated for the inhibition of bovine liver S-adenosyl-homocysteine hydrolase at a concentration of 2.0 mM.
The subject of experiment [2] is L cells. The experiment is described as follows: Percentage control of incorporation of [3H]thymidine into DNA of uninfected L-cell cultures after 72 hr exposure. The experiment is classed as functional, Mus musculus, L929. Further details: concentration or dose not given beside the values.
Experiment [3] has as its system L cells. The experiment is described as follows: Percentage control of incorporation of [3H]thymidine into DNA of uninfected L-cell cultures after 36h exposure. In kind it is functional, Mus musculus, L929. Further details: concentration or dose not given beside the values.

The term Inhibition denotes the relative decrease from the control value, in per cent. As a reminder, the inhibition is the relative decrease from the control value, in per cent. Turning to `Nc1nccc2c1ncn2C(CO)CC(CO)CO` (configuration not stated), the Inhibition in the experiment on L929 was 9%. For the same compound, the inhibition in experiment [1] was determined as 94%.
The matching figures for `Nc1ncnc2c1nnn2C(CO)CC(CO)CO` (configuration not stated): 11% and 94%.
On to `Nc1ncnc2c1nnn2C1CC(CO)C(O)C1O` (configuration not stated), for which the figures for the Control in the experiment on L cells [2] and in the experiment with L cells [3] were 146% and 89%, respectively. Besides, the Inhibition in the experiment on L929 came to 7%.
On the same counts, the results for `Nc1ncnc2c1ncn2[C@@H]1C[C@H](CO)[C@@H](O)[C@H]1O` [ARISTEROMYCIN] are 134%, 81% and 65%.
Turning to `CNc1ncnc2c1ncn2C(CO)CC(CO)CO` (configuration not stated), in the experiment with L929, the Inhibition is listed as 7%. This compound displayed an inhibition in experiment [1] of 82%.
As for `Nc1nccc2c1ncn2C(C=O)CC(C=O)CO` (configuration not stated), the Control in the experiment with L cells [2] stood at 133%; in the experiment with L cells [3] it was 107%. Moreover, the Inhibition in the experiment with L929 came out at 91%.
On to `CNc1ncnc2c1ncn2C1CC(CO)C(O)C1O` (configuration not stated), for which the values for the Control with L cells [2] and in the experiment with L cells [3] were 137% and 95%, respectively. The compound further returned an Inhibition in the experiment on L929 of 19%.
As to `Nc1nccc2c1ncn2[C@@H]1C[C@H](CO)[C@@H](O)[C@H]1O` [3-DEAZAARISTEROMYCIN A], the Control amounted to 246% in the experiment with L cells [2] and 86% in the experiment on L cells [3]. The compound also yielded an Inhibition in the experiment with L929 of 95%.
On the same counts, the results for `Nc1ncnc2c1nnn2C(C=O)CC(C=O)CO` (configuration not stated) are 81%, 91% and 63%.
In the experiment on L929, `Nc1ncnc2c1ncn2C(CO)CC(CO)CO` (configuration not stated) displayed an Inhibition of 13%. The compound further showed an inhibition in experiment [1] of 98%.
Regarding `Nc1ncnc2c1ncn2C(C=O)CC(C=O)CO` (configuration not stated), the values for the Control with L cells [2] and with L cells [3] were 130% and 67%, respectively. In the experiment with L929, this compound showed an Inhibition of 75%.
The matching figures for `CNc1ncnc2c1ncn2C(C=O)CC(C=O)CO` (configuration not stated): 106%, 63% and 60%.
